Data from patent US4036846A, “3-Hydroxy and 3-acetoxy-6-triphenyl-methylaminopenams” (priority 1976, dated 1977).
Several values for one entry are separate records, joined by “and”; a condition that tells them apart may be missing. Identical values can stand only once. Counter-ions that a name gives are not always drawn. Like-named read-outs stand apart in the source and are kept apart here.

How the values were obtained:
Assay in all cases: microbe, parasite or virus in culture
[1] = test system: Staph. aureus 01A005; format: cell-based, Staphlococcus aureus; conditions: brain-heart infusion agar, 37° C., anaerobic, sodium salts, separate Test Nos. 1-3; for MIC: Staphylococcus aureus
[2] = test system: Staph. aureus 01A006; format: cell-based, Staphlococcus aureus; conditions: brain-heart infusion agar, 37° C., anaerobic, sodium salts, separate Test Nos. 1-3; for MIC: Staphylococcus aureus
[3] = test system: Strep. equi. 02I001; format: cell-based, Streptococcus equis; conditions: brain-heart infusion agar, 37° C., anaerobic, sodium salts, separate Test Nos. 1-3
[4] = test system: Strep. zoo. 02H001; format: cell-based, Streptococcus zoobacter; conditions: brain-heart infusion agar, 37° C., anaerobic, sodium salts, separate Test Nos. 1-3; for MIC: Streptococcus

CC1(C)S[C@@H]2C(NC(=O)COc3ccccc3)C(=O)N2C1P(=O)(O)O.[Na] (some centres unmarked) [6-(2-Phenoxyacetamido)-2,2-dimethyl-3-phosphonopenam, sodium salt]
MIC (minimal inhibitory concentration) ([1]; Staph. aureus 01A005, sodium salt): > 200 µg/mL | MIC ([1]; 01A005, read-out: MIC (minimal inhibitory concentration), Staph. aureus 01A005): 200 µg/mL | MIC (minimal inhibitory concentration) ([2]; Staph. aureus 01A006, sodium salt): > 200 µg/mL | MIC ([2]; 01A006, read-out: MIC (minimal inhibitory concentration), Staph. aureus 01A006): 200 µg/mL | MIC (minimal inhibitory concentration) ([3]; Strep. equi. 02I001, sodium salt): 100 µg/mL | MIC ([3]; Streptococcus equi, read-out: MIC (minimal inhibitory concentration), Strep. equi. 02I001): > 200 µg/mL | MIC (minimal inhibitory concentration) ([4]; Strep. zoo. 02H001, sodium salt): 100 µg/mL and 200 µg/mL | MIC ([4]; read-out: MIC (minimal inhibitory concentration), Strep. zoo. 02H001): > 200 µg/mL

COP(=O)(O)C1N2C(=O)C(NC(=O)COc3ccccc3)C2SC1(C)C (centres unmarked) [6-(2-Phenoxyacetamido)-2,2-dimethyl-3-(0-methylphosphono)penam, sodium salt]
MIC ([1]; Staph. aureus 01A005, read-out: MIC (minimal inhibitory concentration)): 200 µg/mL | MIC ([2]; Staph. aureus 01A006, read-out: MIC (minimal inhibitory concentration)): 200 µg/mL | MIC ([4]; Strep. zoo. 02H001, read-out: MIC (minimal inhibitory concentration)): > 200 µg/mL
